# Test results from ChEMBL document CHEMBL1201862, “PubChem BioAssay data set” (2004).
#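 A five-concentration, 48-hour dose response in 96-well plates underlies each endpoint, interpolated linearly between surrounding concentrations. The concentration for 50% growth inhibition is given as GI50.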 Active and inactive are the calls of the source. Cut-off read from the data, not from the text of the source: active = GI50 up to about 1.1 µM and inactive = higher.
# Assays:
# Test in all cases: growth of human tumour cells (NCI), 48 h
# [1] = system: Hs-578T
# [2] = system: U-251
# [3] = system: LOX IMVI
# [4] = system: OVCAR-3
# [5] = system: EKVX
# [6] = system: A498
# [7] = system: CAKI-1
# [8] = system: RPMI-8226
# [9] = system: PC-3
# [10] = system: MDA-MB-231
# [11] = system: SK-MEL-5
# [12] = system: HT-29
# [13] = system: SN12C
# [14] = system: SK-MEL-28
# [15] = system: SF-295
# [16] = system: HCT-15
# [17] = system: SF-268
# [18] = system: HCC 2998
# [19] = system: ACHN
# [20] = system: MDA-MB-435
# [21] = system: HOP-62
# [22] = system: OVCAR-8
# [23] = system: SK-OV-3
# [24] = system: HL-60
# [25] = system: HCT-116
# [26] = system: IGROV-1
# [27] = system: 786-0
# [28] = system: SR
# [29] = system: SW-620
# [30] = system: HOP-92
# [31] = system: KM12
# [32] = system: NCI/ADR-RES
# [33] = system: T47D
# [34] = system: OVCAR-5
# [35] = system: TK-10
# [36] = system: OVCAR-4
# [37] = system: DU-145
# [38] = system: RXF 393
# [39] = system: SNB-75
# [40] = system: M14
# [41] = system: UACC-257
# [42] = system: MDA-N
# [43] = system: A549
# [44] = system: NCI-H522
# [45] = system: K562
# [46] = system: Malme-3M
# [47] = system: MCF7
# [48] = system: UACC-62
# [49] = system: SK-MEL-2
# [50] = system: UO-31
# [51] = system: NCI-H226
# [52] = system: MOLT-4
# [53] = system: CCRF-CEM
# [54] = system: NCI-H23
# [55] = system: NCI-H460
# [56] = system: COLO 205
# [57] = system: BT-549
# [58] = system: SF-539
# [59] = system: SNB-19
compound,measurement,setting,value
CN(C)/C=C/c1c2c(nc3ccccc13)C(=O)c1cccnc1C2=O,GI50,[1],1580 nM (inactive)
same,GI50,[2],353 nM (active)
same,GI50,[3],< 10 nM (active)
same,GI50,[4],56.8 nM (active)
same,GI50,[5],2250 nM (inactive)
same,GI50,[6],865 nM (active)
same,GI50,[7],1460 nM (inactive)
same,GI50,[8],1890 nM (inactive)
same,GI50,[9],542 nM (active)
same,GI50,[10],867 nM (active)
same,GI50,[11],151 nM (active)
same,GI50,[12],2200 nM (inactive)
same,GI50,[13],532 nM (active)
same,GI50,[14],552 nM (active)
same,GI50,[15],570 nM (active)
same,GI50,[16],90.8 nM
same,GI50,[17],410 nM (active)
same,GI50,[18],1280 nM (inactive)
same,GI50,[19],217 nM (active)
same,GI50,[20],548 nM (active)
same,GI50,[21],57.9 nM (active)
same,GI50,[22],407 nM (active)
same,GI50,[23],792 nM (active)
same,GI50,[24],299 nM (active)
same,GI50,[25],197 nM (active)
same,GI50,[26],1420 nM (inactive)
same,GI50,[27],226 nM (active)
same,GI50,[28],221 nM (active)
same,GI50,[29],244 nM (active)
same,GI50,[30],2040 nM (inactive)
same,GI50,[31],350 nM (active)
same,GI50,[32],321 nM (active)
same,GI50,[33],3970 nM (inactive)
same,GI50,[34],1450 nM (inactive)
same,GI50,[35],1400 nM (inactive)
same,GI50,[36],351 nM (active)
same,GI50,[37],416 nM (active)
same,GI50,[38],705 nM (active)
same,GI50,[39],432 nM (active)
same,GI50,[40],218 nM (active)
same,GI50,[41],668 nM (active)
same,GI50,[42],540 nM (active)
same,GI50,[43],912 nM (active)
same,GI50,[44],315 nM (active)
same,GI50,[45],446 nM (active)
same,GI50,[46],697 nM (active)
same,GI50,[47],262 nM (active)
same,GI50,[48],541 nM (active)
same,GI50,[49],1620 nM (inactive)
same,GI50,[50],557 nM (active)
same,GI50,[51],292 nM (active)
same,GI50,[52],2010 nM (inactive)
same,GI50,[53],1840 nM (inactive)
same,GI50,[54],592 nM (active)
same,GI50,[55],109 nM (active)
same,GI50,[56],2070 nM (inactive)
same,GI50,[57],402 nM (active)
same,GI50,[58],300 nM (active)
same,GI50,[59],562 nM (active)
